Results published in patent US20170240556A1, “BIFLUORODIOXALANE-AMINO-BENZIMIDAZOLE KINASE INHIBITORS FOR THE TREATMENT OF CANCER, AUTOIMMUNEINFLAMMATION AND CNS DISORDERS” (4SC DISCOVERY GMBH, priority 2012, published 2017).

What was measured:
Test in all cases: Proliferation Assay
Type in all cases: cell-based
ACHN (kidney) = conditions: Homo sapiens, 72 h, read-out: IC50 inhibition of cell growth
Description: (§1) For the determination of the inhibitory capacity of compounds of the present invention (in the following: “test compound(s)”) on cell growth, cancer cells were seeded into microtitre plates, treated with different concentrations of test compound or left untreated, and after 72 h the protein content was determined as an equivalent for the cell number.
(§2) Test compounds were dissolved in 100% DMSO and predilutions in cell culture medium were prepared with a final concentration of 0.1% DMSO in medium. The cell culture medium for dilution of the test compounds, consecutive culturing of cell lines and usage during the assay was a cell line specific medium as recommended by the cell line supplier and identical for all three applications mentioned above. After a 24-hour pre-growth period of the seeded cancer cells, the test compound containing media or medium containing 0.1% DMSO as control was added to the cells. The cells were allowed to grow at 37° C. for 72 hours. In addition, all experiments contained a few plates with cells that were processed for measurement immediately after the 24 hours recovery period. These plates contained information about the cell number that existed before treatment, at time zero, and served to calculate the cytotoxicity and/or growth inhibitory effects.
(§3) After treatment, cells were precipitated by addition of 10% TCA (trichloracetic acid). Prior to fixation, the media was aspirated. After an hour of incubation at 4° C. the plates were washed twice with 400 μl of deionized water. Cells were then stained with 100 μl of a 0.08% wt/v SRB (sulforhodamine). The plates were allowed to sit for at least 30 min and washed six times with 1% acetic acid to remove unbound staining agent. The plates were left to dry at room temperature and bound SRB was solubilized with 100 μl of 10 mM Tris base. Measurement of optical density was performed at 560 nm on a Victor 2 plate reader (Perkin Elmer, Germany).
(§4) One common way to express the effect of an anticancer agent is to measure cell viability and survival in the presence of the test agent as % Treated/Control×100. The relationship between the viability and dose is called a dose response curve. Those dose response curves were determined by using algorithms developed by Oncolead GmbH & Co. KG, Munich, Germany, that can be compared to commercial applications, e.g. XLfit™ (ID Business Solutions Ltd., Guildford, UK) algorithm “205”.

5637 (bladder) = conditions: 72 h, read-out: IC50 inhibition of cell growth
Description: as §1, §2, §3, §4

SKLMS1 (uterus) = conditions: Homo sapiens, SK-LMS-1, 72 h, read-out: IC50 inhibition of cell growth
Description: as §1, §2, §3, §4

SKOV3 (ovary) = conditions: Homo sapiens, SK-OV-3, 72 h, read-out: IC50 inhibition of cell growth
Description: as §1, §2, §3, §4

RDES (bone) = conditions: RD-ES, 72 h, read-out: IC50 inhibition of cell growth
Description: as §1, §2, §3, §4

SKBR3 (breast) = conditions: Homo sapiens, SK-BR-3, 72 h, read-out: IC50 inhibition of cell growth
Description: as §1, §2, §3, §4

HS729 (muscle) = conditions: 72 h, read-out: IC50 inhibition of cell growth
Description: as §1, §2, §3, §4

JEG3 (placenta) = conditions: Homo sapiens, JEG-3, 72 h, read-out: IC50 inhibition of cell growth
Description: as §1, §2, §3, §4

TE671 (muscle) = conditions: Homo sapiens, TE-671, 72 h, read-out: IC50 inhibition of cell growth
Description: as §1, §2, §3, §4

MDAMB436 (breast) = conditions: Homo sapiens, MDA-MB-436, 72 h, read-out: IC50 inhibition of cell growth
Description: as §1, §2, §3, §4

CAKI1 (kidney) = conditions: Homo sapiens, CAKI-1, 72 h, read-out: IC50 inhibition of cell growth
Description: as §1, §2, §3, §4

PLCPRFS (liver) = conditions: 72 h, read-out: IC50 inhibition of cell growth
Description: as §1, §2, §3, §4

C33A (cervix) = conditions: Homo sapiens, C-33-A, 72 h, read-out: IC50 inhibition of cell growth
Description: as §1, §2, §3, §4

SKNSH (brain) = conditions: Homo sapiens, SK-N-SH, 72 h, read-out: IC50 inhibition of cell growth
Description: as §1, §2, §3, §4

MT3 (breast) = conditions: 72 h, read-out: IC50 inhibition of cell growth
Description: as §1, §2, §3, §4

ASPC1 (pancreas) = conditions: Homo sapiens, 72 h, read-out: IC50 inhibition of cell growth
Description: as §1, §2, §3, §4

NCIH292 (lung) = conditions: Homo sapiens, NCI-H292, 72 h, read-out: IC50 inhibition of cell growth
Description: as §1, §2, §3, §4

DU145 (prostate) = conditions: Homo sapiens, DU-145, 72 h, read-out: IC50 inhibition of cell growth
Description: as §1, §2, §3, §4

MDAMB468 (breast) = conditions: Homo sapiens, MDA-MB-468, 72 h, read-out: IC50 inhibition of cell growth
Description: as §1, §2, §3, §4

HEK293 (kidney) = conditions: Homo sapiens, 72 h, read-out: IC50 inhibition of cell growth
Description: as §1, §2, §3, §4

SW620 (colon) = conditions: Homo sapiens, SW-620, 72 h, read-out: IC50 inhibition of cell growth
Description: as §1, §2, §3, §4

A431 (skin) = conditions: Homo sapiens, A-431, 72 h, read-out: IC50 inhibition of cell growth
Description: as §1, §2, §3, §4

BT20 (breast) = conditions: Homo sapiens, BT-20, 72 h, read-out: IC50 inhibition of cell growth
Description: as §1, §2, §3, §4

U2OS (bone) = conditions: Homo sapiens, 72 h, read-out: IC50 inhibition of cell growth
Description: as §1, §2, §3, §4

SNB75 (brain) = conditions: Homo sapiens, SNB-75, 72 h, read-out: IC50 inhibition of cell growth
Description: as §1, §2, §3, §4

NCIH460 (lung) = conditions: Homo sapiens, NCI-H460, 72 h, read-out: IC50 inhibition of cell growth
Description: as §1, §2, §3, §4

Measured: IC50

COc1cccc(C(=O)Nc2nc3cc4c(cc3[nH]2)OC(F)(F)O4)c1 [Compound 56, N-(2,2-difluoro-5H-[1,3]dioxolo[4′,5′:4,5]benzo[1,2-d]imidazol-6-yl)-3-methoxybenzamide]
≤ 1 µM: all assays above
